Experimental data: paper PMC3745430, “Novel Multiplexed Assay for Identifying SH2 Domain Antagonists of STAT Family Proteins” (PLoS ONE, 2013)

Assays:
STAT3(136–705) [1] = biological target: T1, STAT3(136–705) (Homo sapiens, UniProt P40763); experiment: Single STAT3-SH2 binding assay (AlphaLISA); conditions: non-multiplexed single assay
T1 construct: amino acids 136 to 705 of human STAT3 and 136 to 703 of human STAT5b; 6×His-tag (N); made in house; host or cells: E. coli BL-21 Star (DE3) pLysS co-transformed with pBirAcm
Experimental: (§1) Both AlphaLISA and AlphaScreen are bead-based nonradioactive binding assay systems for detecting biomolecular interactions in a microplate format. The binding of the biological partners brings the donor and acceptor beads into close proximity, and AlphaLISA produces a specific signal around 615 nm and AlphaScreen emits a broad signal between 520 and 620 nm. The assays were performed in a final reaction volume of 25 µL of the assay buffer, which contained 10 mM HEPES-NaOH (pH 7.4), 50 mM NaCl, 1 mM EDTA (pH 8.0), 0.1% (w/v) NP-40, and 10 ng/µL (w/v) BSA in a 96-well microplate at 25°C. The labeled phosphotyrosyl (pTyr, pY) peptide probes were DIG-GpYLPQTV and FITC-GpYLVLDKW for STAT3 and STAT5b, respectively. In the single assay for STAT3 binding, 100 nM STAT3(136–705) protein was incubated with a test compound dissolved in DMSO for 30 min, and 1.0 nM DIG-GpYLPQTV was added and the mixture was incubated for 90 min. Streptavidin-coated donor beads (0.25 µg/well) and anti-DIG AlphaLISA acceptor beads (0.25 µg/well) were added and incubated for 90 min before the signals were measured with EnVison Xcite (PerkinElmer Life Sciences). In the single assay for STAT5b binding, 20 nM STAT5b(136–703) was incubated with a test compound for 30 min, and 1.0 nM FITC-GpYLVLDKW was added and incubated for 90 min. Streptavidin-coated donor beads (0.25 µg/well) and anti-FITC AlphaScreen acceptor beads (0.25 µg/well) were added and incubated for 90 min before the signals were measured with EnVison Xcite. In the multiplexed assay, 100 nM STAT3(136–705) and 20 nM STAT5b(136–703) were incubated with a test compound for 30 min, and 1.0 nM DIG-GpYLPQTV and 1.0 nM FITC-GpYLVLDKW were added and incubated for 90 min. Streptavidin-coated donor beads (0.50 µg/well), anti-DIG AlphaLISA (0.25 µg/well), and anti-FITC AlphaScreen acceptor beads (0.25 µg/well) were added and incubated for 90 min before the signals were measured with EnVison Xcite. AlphaLISA and AlphaScreen signals for measuring STAT3- and STAT5b-SH2 binding, respectively, can be separately measured by using a dysprosium 572 nm and a europium 615 nm narrow bandwidth filter. In inhibitory assays, these signals for the bound state and the free state were represented as 0% and 100% inhibition, respectively. The bound state was measured by incubating the labeled peptide and the protein without test compounds. The free state was measured by incubating the same mixture with an additional 10 µM non-labeled peptide contained phosphorylated tyrosine, which competitively binds to its corresponding protein. The IC50 value was calculated by Graph pad prism 4.0. The mean and the standard error (SEM) of IC50 values were determined from three independent experiments. The Z’ value was calculated using the equation Z’ = 1–(3×SD_bound +3×SD_free)/(Signal_bound – Signal_free). STAT1 and Grb2 binding assays were performed as described in previous report. In the assays for selectivity of Compound 1, 100 pM biotinylated DIG or 100 pM biotinylated FITC was incubated with 10 µM or 30 µM Compound 1 for 30 min. Streptavidin-coated donor beads (0.25 µg/well) and anti-DIG AlphaLISA acceptor beads (0.25 µg/well) or anti-FITC AlphaScreen acceptor beads (0.25 µg/well) were added and incubated for 90 min before the signals were measured with EnVison Xcite.

Grb2-SH2 = biological target: T2, Grb2-SH2 (Homo sapiens, UniProt P62993); experiment: Grb2-SH2 binding AlphaScreen assay; conditions: AlphaScreen assay (Figure S8A)
T2 construct: made in house
Experimental: Both AlphaLISA and AlphaScreen are bead-based nonradioactive binding assay systems for detecting biomolecular interactions in a microplate format. The binding of the biological partners brings the donor and acceptor beads into close proximity, and AlphaLISA produces a specific signal around 615 nm and AlphaScreen emits a broad signal between 520 and 620 nm. The assays were performed in a final reaction volume of 25 µL of the assay buffer, which contained 10 mM HEPES-NaOH (pH 7.4), 50 mM NaCl, 1 mM EDTA (pH 8.0), 0.1% (w/v) NP-40, and 10 ng/µL (w/v) BSA in a 96-well microplate at 25°C. […] Streptavidin-coated donor beads (0.25 µg/well) and anti-DIG AlphaLISA acceptor beads (0.25 µg/well) were added and incubated for 90 min before the signals were measured with EnVison Xcite (PerkinElmer Life Sciences). […] Streptavidin-coated donor beads (0.25 µg/well) and anti-FITC AlphaScreen acceptor beads (0.25 µg/well) were added and incubated for 90 min before the signals were measured with EnVison Xcite. […] Streptavidin-coated donor beads (0.50 µg/well), anti-DIG AlphaLISA (0.25 µg/well), and anti-FITC AlphaScreen acceptor beads (0.25 µg/well) were added and incubated for 90 min before the signals were measured with EnVison Xcite. […] The bound state was measured by incubating the labeled peptide and the protein without test compounds. […] The IC50 value was calculated by Graph pad prism 4.0. […]

STAT3(136–705) [2] = biological target: T1, STAT3(136–705); experiment: Multiplexed Alpha assay, STAT3-SH2 binding (AlphaLISA); conditions: multiplexed binding assay; mean and SEM, three independent experiments; read-out: IC50 STAT3-SH2 binding (STAT3)
Experimental: as §1

STAT5b(136–703) = biological target: T3, STAT5b(136–703) (Homo sapiens, UniProt P51692); experiment: Multiplexed Alpha assay, STAT5b-SH2 binding (AlphaScreen); conditions: multiplexed binding assay; mean and SEM, three independent experiments; read-out: IC50 STAT5b-SH2 binding (STAT5b)
T3 construct: 136 to 703 of human STAT5b; 6×His-tag (N); made in house; host or cells: E. coli BL-21 Star (DE3) pLysS co-transformed with pBirAcm
T3 sequence (P51692 136-703): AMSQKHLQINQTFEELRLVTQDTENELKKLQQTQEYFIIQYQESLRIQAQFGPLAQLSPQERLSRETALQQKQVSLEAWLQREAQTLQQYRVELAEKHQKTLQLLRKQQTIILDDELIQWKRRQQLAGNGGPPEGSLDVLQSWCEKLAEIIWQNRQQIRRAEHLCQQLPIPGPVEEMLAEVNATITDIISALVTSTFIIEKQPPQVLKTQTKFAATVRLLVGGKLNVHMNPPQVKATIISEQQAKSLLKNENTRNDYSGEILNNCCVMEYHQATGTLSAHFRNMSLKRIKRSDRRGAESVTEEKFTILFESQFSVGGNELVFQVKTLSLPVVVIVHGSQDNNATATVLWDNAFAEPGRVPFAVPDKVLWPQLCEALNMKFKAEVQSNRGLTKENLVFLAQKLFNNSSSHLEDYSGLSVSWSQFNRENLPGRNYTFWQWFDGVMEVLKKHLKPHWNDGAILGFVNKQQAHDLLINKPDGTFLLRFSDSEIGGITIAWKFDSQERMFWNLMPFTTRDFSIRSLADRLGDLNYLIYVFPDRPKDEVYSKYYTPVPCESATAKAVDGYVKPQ
Experimental: as §1

T1 sequence (P40763 136-705): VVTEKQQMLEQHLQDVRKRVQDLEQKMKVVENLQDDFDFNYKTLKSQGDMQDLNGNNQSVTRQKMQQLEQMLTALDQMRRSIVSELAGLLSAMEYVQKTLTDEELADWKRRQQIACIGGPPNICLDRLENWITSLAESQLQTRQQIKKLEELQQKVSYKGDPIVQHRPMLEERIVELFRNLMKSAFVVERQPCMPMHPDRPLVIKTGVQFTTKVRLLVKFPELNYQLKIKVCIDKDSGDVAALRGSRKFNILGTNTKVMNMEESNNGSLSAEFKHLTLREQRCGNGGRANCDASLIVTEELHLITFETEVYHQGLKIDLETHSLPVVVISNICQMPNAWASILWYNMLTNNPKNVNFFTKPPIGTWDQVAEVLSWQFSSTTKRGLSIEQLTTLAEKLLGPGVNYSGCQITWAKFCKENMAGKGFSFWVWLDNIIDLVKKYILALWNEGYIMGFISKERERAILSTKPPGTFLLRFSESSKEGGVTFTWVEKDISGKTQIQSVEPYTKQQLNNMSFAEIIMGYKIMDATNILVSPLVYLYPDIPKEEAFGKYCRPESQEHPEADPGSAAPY

IC50 (STAT3(136–705) [1]): 3.8 µM | Inhibition of Grb2-SH2 binding (Grb2-SH2): inhibited neither | IC50 (STAT3(136–705) [2]): 5 ± 0.073 µM | IC50 (STAT5b(136–703)): 11 ± 0.27 µM
SMILES: O=C1C=CC(=NC2=C(Cl)C(=O)c3ccccc3C2=O)C=C1 [Compound 1]
